# Test results reported in the supplement of paper PMC10307832.
# What was measured:
# Assay in all cases: relative viability (nuclei count vs DMSO), 5 days (fraction); higher = more cells survive
# OSI-027 + Crizotinib = compound: COc1cccc2cc(-c3nc([C@H]4CC[C@H](C(=O)O)CC4)n4ncnc(N)c34)[nH]c12 [OSI-027] + C[C@@H](Oc1cc(-c2cnn(C3CCNCC3)c2)cnc1N)c1c(Cl)ccc(F)c1Cl [Crizotinib] (partner 1 µM)
# Method in brief: (§1)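 Lung cancer cell lines were seeded in 1536-well plates and dosed by pin tool the next day, with either a single drug or a fixed anchor-drug dose combined with five library-drug doses (not always all listed) spaced in √10 steps. Five days later, one step fixed the cells and stained their nuclei (final 0.05% Triton X-100, 1% formaldehyde, 1 ug/ml Hoechst), and nuclei were counted on 4× images. Relative viability is the nuclei count in treated wells divided by the count in vehicle wells, and each value is the median of duplicate plates.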
# Alpelisib + Trametinib = compound: Cc1nc(NC(=O)N2CCC[C@H]2C(N)=O)sc1-c1ccnc(C(C)(C)C(F)(F)F)c1 [Alpelisib] + CC(=O)Nc1cccc(-n2c(=O)n(C3CC3)c(=O)c3c(Nc4ccc(I)cc4F)n(C)c(=O)c(C)c32)c1 [Trametinib] (partner 0.02 µM)
# Method in brief: as §1
# Alpelisib + Foretinib = compound: Cc1nc(NC(=O)N2CCC[C@H]2C(N)=O)sc1-c1ccnc(C(C)(C)C(F)(F)F)c1 [Alpelisib] + COc1cc2c(Oc3ccc(NC(=O)C4(C(=O)Nc5ccc(F)cc5)CC4)cc3F)ccnc2cc1OCCCN1CCOCC1 [Foretinib] (partner 0.25 µM)
# Method in brief: as §1
# Alpelisib + Phenformin = compound: Cc1nc(NC(=O)N2CCC[C@H]2C(N)=O)sc1-c1ccnc(C(C)(C)C(F)(F)F)c1 [Alpelisib] + N=C(N)NC(=N)NCCc1ccccc1 [Phenformin] (partner 250 µM)
# Method in brief: as §1
cell line,measurement,setting,value
UMC-11,relative viability,OSI-027 + Crizotinib; first compound 0.01 µM,0.499
same,relative viability,OSI-027 + Crizotinib; first compound 0.03162 µM,0.535
same,relative viability,OSI-027 + Crizotinib; first compound 0.1 µM,0.587
same,relative viability,OSI-027 + Crizotinib; first compound 0.3162 µM,0.491
same,relative viability,OSI-027 + Crizotinib; first compound 1 µM,0.378
same,relative viability,Alpelisib + Trametinib; first compound 0.04 µM,0.696
same,relative viability,Alpelisib + Trametinib; first compound 0.1265 µM,0.628
same,relative viability,Alpelisib + Trametinib; first compound 0.4 µM,0.875
same,relative viability,Alpelisib + Trametinib; first compound 1.265 µM,0.67
same,relative viability,Alpelisib + Trametinib; first compound 4 µM,0.68
same,relative viability,Alpelisib + Foretinib; first compound 0.04 µM,1.01
same,relative viability,Alpelisib + Foretinib; first compound 0.1265 µM,1.05
same,relative viability,Alpelisib + Foretinib; first compound 0.4 µM,1.12
same,relative viability,Alpelisib + Foretinib; first compound 1.265 µM,0.839
same,relative viability,Alpelisib + Foretinib; first compound 4 µM,0.875
same,relative viability,Alpelisib + Phenformin; first compound 0.04 µM,0.302
same,relative viability,Alpelisib + Phenformin; first compound 0.1265 µM,0.325
same,relative viability,Alpelisib + Phenformin; first compound 0.4 µM,0.326
same,relative viability,Alpelisib + Phenformin; first compound 1.265 µM,0.31
same,relative viability,Alpelisib + Phenformin; first compound 4 µM,0.262
